Assay results published in ChEMBL document CHEMBL1157697, “Novel ester and acid derivatives of the 1,5-diarylpyrrole scaffold as anti-inflammatory and analgesic agents. Synthesis and in vitro and in vivo biological evaluation” (J Med Chem, 2010).

Key:
Rattus norvegicus [1] = test: Antiinflammatory activity against carrageenan-induced paw edema rat inflammatory model assessed as paw volume at 10 mg/kg, po after 60 mins; assay type: functional
Mus musculus [2] = species: Mus musculus; test: Toxicity in Swiss mouse assessed as number of falls in 30 seconds after 30 mins by rotarod test; assay type: organism-based; details: in vivo, 0.5 h
Mus musculus [3] = species: Mus musculus; test: Toxicity in Swiss mouse assessed as number of falls in 30 seconds after 45 mins by rotarod test; assay type: organism-based; details: in vivo, 0.75 h
[4] = biological target: T1, Prostaglandin G/H synthase 2 (Mus musculus, UniProt Q05769)
T1 sequence (Q05769 whole entry): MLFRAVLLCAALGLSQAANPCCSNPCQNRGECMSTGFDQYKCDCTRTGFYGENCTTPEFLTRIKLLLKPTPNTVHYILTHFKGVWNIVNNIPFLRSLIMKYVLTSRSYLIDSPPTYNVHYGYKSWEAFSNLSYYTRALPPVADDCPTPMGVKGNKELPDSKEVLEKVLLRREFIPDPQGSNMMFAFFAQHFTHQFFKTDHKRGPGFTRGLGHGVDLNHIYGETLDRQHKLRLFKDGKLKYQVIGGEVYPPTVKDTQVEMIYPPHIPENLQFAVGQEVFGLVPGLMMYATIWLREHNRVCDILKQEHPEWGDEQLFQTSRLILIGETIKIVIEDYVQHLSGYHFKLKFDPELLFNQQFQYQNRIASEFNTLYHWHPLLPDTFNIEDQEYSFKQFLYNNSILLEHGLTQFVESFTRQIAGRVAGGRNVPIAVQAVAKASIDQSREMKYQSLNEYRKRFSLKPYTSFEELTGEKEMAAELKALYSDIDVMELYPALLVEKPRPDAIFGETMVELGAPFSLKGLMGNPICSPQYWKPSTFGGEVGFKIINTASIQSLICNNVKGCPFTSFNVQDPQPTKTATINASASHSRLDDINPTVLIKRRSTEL
Description: Inhibition of COX2-dependent PGE2 production in LPS-stimulated mouse J774 cells by RIA

Rattus norvegicus [5] = test: Antiinflammatory activity against carrageenan-induced paw edema rat inflammatory model assessed as paw pressure at 10 mg/kg, po after 30 mins; assay type: functional
[6] = Metabolic stability in human liver microsomes at 0.1 uM; assay type: ADME, Microsome; details: read-out: Stability
[7] = Volume of distribution in Sprague-Dawley rat at 10 mg/kg, iv; assay type: ADME, organism-based; design: dose 10 mg/kg, route intravenous; details: in vivo
[8] = biological target: T2, Prostaglandin G/H synthase 2 (Homo sapiens, UniProt P35354); test: Inhibition of COX2 in human whole blood assessed as inhibition of LPS-induced PGE2 production by RIA; assay type: tissue-based
T2 sequence (P35354 whole entry): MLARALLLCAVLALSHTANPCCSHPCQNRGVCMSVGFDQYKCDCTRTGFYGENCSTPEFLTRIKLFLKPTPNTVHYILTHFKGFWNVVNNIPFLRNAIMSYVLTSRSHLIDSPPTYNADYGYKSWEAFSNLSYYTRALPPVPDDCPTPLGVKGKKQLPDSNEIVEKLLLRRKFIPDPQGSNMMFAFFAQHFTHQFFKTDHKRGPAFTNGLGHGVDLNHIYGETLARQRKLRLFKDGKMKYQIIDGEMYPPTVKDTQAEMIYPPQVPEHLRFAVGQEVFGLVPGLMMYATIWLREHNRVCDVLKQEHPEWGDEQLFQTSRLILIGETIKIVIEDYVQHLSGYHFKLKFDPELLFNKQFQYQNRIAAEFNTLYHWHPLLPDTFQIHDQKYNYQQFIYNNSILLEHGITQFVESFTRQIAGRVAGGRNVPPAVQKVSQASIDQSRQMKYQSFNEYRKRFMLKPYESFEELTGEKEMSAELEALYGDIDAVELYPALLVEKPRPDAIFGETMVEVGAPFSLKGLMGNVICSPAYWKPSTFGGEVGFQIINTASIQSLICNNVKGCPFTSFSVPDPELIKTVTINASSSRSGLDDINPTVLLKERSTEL

Rattus norvegicus [9] = test: Antiinflammatory activity against carrageenan-induced paw edema rat inflammatory model assessed as paw pressure at 10 mg/kg, po after 120 mins; assay type: functional
[10] = biological target: Prostaglandin G/H synthase 1 (Homo sapiens, UniProt P23219); test: Inhibition of COX1 in human whole blood assessed as thromboxane B2 production by RIA; assay type: tissue-based
Sequence of Prostaglandin G/H synthase 1 (Homo sapiens, UniProt P23219) (P23219 whole entry): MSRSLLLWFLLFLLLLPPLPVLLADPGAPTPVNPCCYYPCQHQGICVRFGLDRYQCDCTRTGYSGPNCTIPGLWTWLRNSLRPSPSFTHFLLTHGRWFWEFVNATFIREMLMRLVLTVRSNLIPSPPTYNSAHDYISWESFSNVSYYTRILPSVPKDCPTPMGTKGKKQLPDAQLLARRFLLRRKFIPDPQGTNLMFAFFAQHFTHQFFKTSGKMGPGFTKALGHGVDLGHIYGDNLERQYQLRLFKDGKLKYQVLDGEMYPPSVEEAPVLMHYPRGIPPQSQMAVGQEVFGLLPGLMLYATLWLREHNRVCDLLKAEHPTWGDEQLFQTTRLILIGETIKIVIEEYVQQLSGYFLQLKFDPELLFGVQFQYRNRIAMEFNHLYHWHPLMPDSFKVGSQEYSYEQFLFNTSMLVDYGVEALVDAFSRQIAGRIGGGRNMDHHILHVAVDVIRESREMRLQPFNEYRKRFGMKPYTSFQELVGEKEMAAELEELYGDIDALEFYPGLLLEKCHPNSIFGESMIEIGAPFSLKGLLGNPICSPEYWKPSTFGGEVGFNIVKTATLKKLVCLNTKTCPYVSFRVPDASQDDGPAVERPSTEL

Rattus norvegicus [11] = species: Rattus norvegicus; test: Analgesic activity against zymosan-induced hyperalgesia in rat assessed maximum effect measured up to 2 hrs
Mus musculus [12] = species: Mus musculus; test: Toxicity in Swiss mouse assessed as number of falls in 30 seconds after 60 mins by rotarod test; assay type: organism-based; details: in vivo, 1 h
Rattus norvegicus [13] = test: Antiinflammatory activity against carrageenan-induced paw edema rat inflammatory model assessed as paw pressure at 10 mg/kg, po after 60 mins; assay type: functional
[14] = biological target: T3, Prostaglandin G/H synthase 1 (Mus musculus, UniProt P22437)
T3 sequence (P22437 whole entry): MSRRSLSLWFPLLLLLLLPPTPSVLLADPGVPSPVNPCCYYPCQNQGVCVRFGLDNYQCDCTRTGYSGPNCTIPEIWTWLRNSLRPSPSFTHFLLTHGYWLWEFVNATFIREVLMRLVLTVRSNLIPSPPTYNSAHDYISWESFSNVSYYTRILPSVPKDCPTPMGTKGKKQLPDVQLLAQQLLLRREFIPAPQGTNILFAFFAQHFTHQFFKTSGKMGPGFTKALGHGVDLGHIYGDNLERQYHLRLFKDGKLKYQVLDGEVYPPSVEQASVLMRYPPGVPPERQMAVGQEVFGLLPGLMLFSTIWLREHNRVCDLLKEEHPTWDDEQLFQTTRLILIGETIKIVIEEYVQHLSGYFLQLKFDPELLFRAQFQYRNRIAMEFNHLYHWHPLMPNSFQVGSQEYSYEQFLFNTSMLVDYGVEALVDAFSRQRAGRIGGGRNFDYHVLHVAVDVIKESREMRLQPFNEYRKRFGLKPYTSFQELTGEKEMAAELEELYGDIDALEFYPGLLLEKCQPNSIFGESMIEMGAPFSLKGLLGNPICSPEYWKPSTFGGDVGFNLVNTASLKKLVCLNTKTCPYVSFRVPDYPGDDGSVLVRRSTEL
Description: Inhibition of COX1-dependent PGE2 production in LPS-stimulated mouse J774 cells by RIA

[15] = Metabolic stability in human liver microsomes at 10 uM; assay type: ADME, Microsome; details: read-out: Stability
Rattus norvegicus [16] = test: Antiinflammatory activity against carrageenan-induced paw edema rat inflammatory model assessed as suppression of paw edema at 10 mg/kg, po after 60 mins; assay type: functional
Rattus norvegicus [17] = test: Rate of blood flow in Sprague-Dawley rat at 10 mg/kg, iv; assay type: ADME, organism-based; design: dose 10 mg/kg, route intravenous; details: in vivo
[18] = Clearance in Sprague-Dawley rat at 10 mg/kg, iv; assay type: ADME, organism-based; design: dose 10 mg/kg, route intravenous; details: in vivo
Mus musculus [19] = test: Analgesic activity against acetic acid-induced po dosed mouse abdominal constriction assessed as writhing; details: Abdomen
Rattus norvegicus [20] = species: Rattus norvegicus; test: Analgesic activity against zymosan-induced hyperalgesia in rat assessed maximum effect measured up to 6 hrs
Mus musculus [21] = species: Mus musculus; test: Toxicity in Swiss mouse assessed as number of falls in 30 seconds after 15 mins by rotarod test; assay type: organism-based; details: in vivo, 0.25 h
[22] = Oral bioavailability in Sprague-Dawley rat at 10 mg/kg; assay type: ADME, organism-based; details: in vivo

For `Cc1c(CC(=O)OC(C)C)cc(-c2ccc(S(C)(=O)=O)cc2)n1-c1ccccc1`, the Activity (Rattus norvegicus [1]) was 1.26 mL, the Activity (Mus musculus [2]) was “Non-toxic” and the Activity (Mus musculus [3]) was “Non-toxic”. For the same compound, the IC50 [4] was 7.3 nM, the Activity (Rattus norvegicus [5]) was 56.2 g and the remaining at 0.1 µM [6] was 11%. It also gave a Vd [7] of 5.6 L, an IC50 [8] of 2500 nM and an Activity (Rattus norvegicus [9]) of 48.8 g. For the same compound, the IC50 [10] was 20000 nM, the Activity (Rattus norvegicus [11]) was 75% and the Activity (Mus musculus [12]) was “Non-toxic”. For the same compound, the Activity (Rattus norvegicus [13]) was 51.8 g, the IC50 [14] was > 100000 nM and the remaining at 10 µM [15] was 1%. It also gave an Activity (Rattus norvegicus [16]) of 100%, an LBF (Rattus norvegicus [17]) of 0.8 L/h and a clearance [18] of 33.3 mL/min. The Activity (Mus musculus [19]) was “Dose-dependent effect”, the Activity (Rattus norvegicus [20]) was 70% and the Activity (Mus musculus [21]) was “Non-toxic”. For the same compound, the bioavailability [22] was 42%.
